How the values were obtained:
RWPE-1 cells = test: Mitochondrial zinc uptake imaging in prostate cells; assay type: cell-based; settings: RWPE-1, 50 μM ZnCl2 KSFM, 24 h
Protocol: (§1) FIG. 25 depicts decreased mitochondrial zinc uptake in cancerous cell lines. RWPE-1, RWPE-2, and PC-3 prostate cell lines were incubated for 24 h in medium supplemented with (+) and without (−) 50 μM ZnCl2. RWPE-1 is the only cell line that has a statistically significant (p<0.001) increase in mitochondrial zinc uptake when incubated in zinc-enriched media.
(§2) With a new mitochondrial-targeting sensor in hand, we used DA-ZP1-TPP to investigate the ability of prostate cell lines to accumulate zinc within their mitochondria. RWPE-1 and RWPE-2 are a pair of genetically similar cell lines that retain normal epithelial cell morphology, express cytokeratin markers for prostate epithelial cells, and are hormone sensitive. […] To explore the ability of RWPE-1 and -2 cells to sequester zinc in mitochondria, we measured the fluorescence intensity of DA-ZP1-TPP in both lines after the cells were bathed in normal or zinc-enriched (50 μM ZnCl2) keratinocyte serum-free medium (KSFM) for 24 h prior to imaging. RWPE-1 cells bathed in zinc-enriched medium have a fluorescence signal intensity that is ˜2.3-fold higher than cells bathed in normal medium (FIG. 25). […] Importantly, in both cell lines the observed fluorescence signals from DA-ZP1-TPP are sensitive to ZnPT and TPEN and have good correlation with MitoTracker Red, the Pearson's r values being 0.68±0.09 and 0.59±0.1 for RWPE-1 and -2, respectively. […]

RWPE-2 cells = test: as above; assay type: cell-based; settings: RWPE-2, 50 μM ZnCl2 KSFM, 24 h
Protocol: as §1, §2

[1] = Deacetylation kinetics monitored by UV-vis absorbance (metal-mediated and uncatalyzed hydrolysis); assay type: physicochemical; settings: 2.75 μM, 125 μM ZnCl2, 37° C., 50 mM PIPES pH 7, 100 mM KCl, absorbance 510 nm
Protocol: FIG. 23 depicts kinetic traces for the deacetylation of DA-ZP1-TPP. The half-life for deacetylation of a 2.75 μM solution of DA-ZP1-TPP, at 37° C. in 50 mM PIPES buffer (pH 7) and 100 mM KCl, was measured in the presence of 125 μM ZnCl2 (+Zn), 250 μM EDTA (−Zn), or 1.25 units of porcine liver esterase (Esterase). The change in absorbance at 520 nm (EDTA and esterase) or 510 nm (ZnCl2) was used to monitor the reaction.
FIG. 26 depicts in vitro characterization of DA-ZP1-A3. (a) UV-vis and (b) fluorescence spectra of a 5 μM solution of DA-ZP1-A3 in buffer (50 mM PIPES, 100 mM KCl; pH 7). Spectra were acquired initially, upon addition of 100 μM ZnCl2, and again after addition of 200 μM EDTA. (c) Time-dependent change in the normalized absorbance of a ca. 5 μM solution DA-ZP1-A3 at 37° C. in buffer (50 mM PIPES, 100 mM KCl; pH 7) in the presence of 100 μM ZnCl2 (λabs=510 nm) or EDTA (λabs=520 nm). (d) Integrated fluorescence intensity of a 1 μM solution of ZP1-A3 (circles) or DA-ZP1-A3 (squares) as a function of pH. […]
DA-ZP1-TPP has a zinc-induced fluorescence response and is relatively stable to uncatalyzed hydrolysis and esterase activity. […] Other late 3d-block transition metal ions, such as Co(II) and Cu(II), can coordinate to DA-ZP1-TPP but are generally not available in appreciable chelatable quantities within the cell. […]

[2] = cited from earlier work

SMILES | fluorescence signal intensity, zinc-enriched vs normal medium (RWPE-1 cells) [fold] | increase in fluorescence signal, zinc-enriched vs normal medium (RWPE-2 cells) | kobs of zinc-induced deacetylation [1] [s⁻¹] | pKa of tertiary nitrogen atoms on the DPA units [2]
CC(=O)Oc1c(Cl)cc2c(c1CN(Cc1ccccn1)Cc1ccccn1)Oc1c(cc(Cl)c(OC(C)=O)c1CN(Cc1ccccn1)Cc1ccccn1)C21OC(=O)c2ccc(C(=O)NCC[P+](c3ccccc3)(c3ccccc3)c3ccccc3)cc21 [DA-ZP1-TPP] | ~2.3 | no statistically significant increase | 0.0855 ± 0.019 | 
O=C(NCC[P+](c1ccccc1)(c1ccccc1)c1ccccc1)c1ccc2c(c1)C1(OC2=O)c2cc(Cl)c(O)c(CN(Cc3ccccn3)Cc3ccccn3)c2Oc2c1cc(Cl)c(O)c2CN(Cc1ccccn1)Cc1ccccn1 [ZP1-TPP] |  |  |  | 6.96

Reference: patent US9700637B2, “Reaction-based fluorescent probes for detecting zinc” (Massachusetts Institute of Technology, priority 2013, dated 2017)
